According to ChEMBL document CHEMBL5053500, “Nitric Oxide Induction in Peritoneal Macrophages by a 1,2,3-Triazole Derivative Improves Its Efficacy upon Leishmania amazonensis In Vitro Infection” (J Med Chem, 2021):
Calls of active or inactive are those of the source. The rule behind the calls is not given here.

What was measured:
Leishmania amazonensis [1] = assay: (§1) Antileishmanial activity against Leishmania amazonensis (MHOM/BR/76/MA-76) intracellular amastigotes infected in BALB/c mouse peritoneal macrophages assessed as decrease in number of amastigotes per infected cells at 20 to 40 uM incubated for 24 hrs by Giemsa's azur-eosin-methyle blue staining based light microscopy analysis; assay type: functional, organism-based; conditions: Peritoneal macrophage, dose 20-40 µM
[2] = Cytotoxicity against BALB/c mouse peritoneal macrophages assessed as reduction in cell viability incubated for 24 hrs by MTT assay; assay type: cell-based, Peritoneal macrophage
[3] = Cytotoxicity against human CCD-1072Sk cells assessed as reduction in cell viability measured after 24 hrs by MTT assay; assay type: cell-based
[4] = Selectivity index, ratio of CC50 for cytotoxicity against BALB/c mouse peritoneal macrophage to IC50 for antileishmanial activity against Leishmania amazonensis (MHOM/BR/76/MA-76) intracellular amastigotes infected in BALB/c mouse peritoneal macrophages; assay type: toxicity, cell-based; conditions: read-out: Ratio CC50/IC50
Leishmania amazonensis [5] = assay: Antileishmanial activity against Leishmania amazonensis (MHOM/BR/76/MA-76) promastigotes assessed as reduction in parasite growth incubated for 24 hrs by MTT assay; assay type: functional, organism-based; conditions: MHOM/BR/76/MA-76, 24 h
Leishmania amazonensis [6] = assay: as §1, with “upward shift” for “decrease”, “concentration response curves” for “number”, “parasite viability” for “amastigotes per infected cells at 20 to 40 uM”; assay type: functional, organism-based; conditions: Peritoneal macrophage
[7] = Selectivity index, ratio of CC50 for cytotoxicity against BALB/c mouse peritoneal macrophages to IC50 for antileishmanial activity against Leishmania amazonensis (MHOM/BR/76/MA-76) promastigotes; assay type: toxicity; conditions: read-out: Ratio CC50/IC50
Leishmania amazonensis [8] = assay: as §1, with “per 100” for “per infected”, “at 10” for “at 20”; assay type: functional, organism-based; conditions: Peritoneal macrophage, dose 10-40 µM
Leishmania amazonensis [9] = assay: Antileishmanial activity against Leishmania amazonensis (MHOM/BR/76/MA-76) intracellular amastigotes infected in BALB/c mouse peritoneal macrophages assessed as reduction in parasite growth incubated for 24 hrs by Giemsa's azur-eosin-methyle blue staining based light microscopy analysis; assay type: functional, organism-based; conditions: MHOM/BR/76/MA-76, Peritoneal macrophage
Leishmania amazonensis [10] = assay: Antileishmanial activity against Leishmania amazonensis (MHOM/BR/76/MA-76) intracellular amastigotes infected in BALB/c mouse peritoneal macrophages assessed as low amastigote mean at 5 to 40 uM incubated for 24 hrs by Giemsa's azur-eosin-methyle blue staining based light microscopy analysis; assay type: functional, organism-based; conditions: Peritoneal macrophage, dose 5-40 µM
Leishmania amazonensis [11] = assay: Antileishmanial activity against Leishmania amazonensis (MHOM/BR/76/MA-76) promastigotes assessed as upward shift in concentration response curves of parasite viability incubated for 24 hrs by MTT assay; assay type: functional, organism-based
Peritoneal macrophage [12] = assay: Upregulation of IL-1beta mRNA expression in BALB/c mouse peritoneal macrophages stimulated with Leishmania amazonensis at 50 uM measured after 48 hrs by qRT-PCR analysis; assay type: functional, tissue-based
Leishmania amazonensis [13] = assay: Induction of morphological changes in Leishmania amazonensis (MHOM/BR/76/MA-76) promastigotes assessed as formation of membrane profiles near the flagellar pocket at IC50 incubated for 24 hrs by transmission electron microscopy analysis; assay type: functional, organism-based
Peritoneal macrophage [14] = assay: Upregulation of IL-12 mRNA expression in BALB/c mouse peritoneal macrophages stimulated with Leishmania amazonensis at 50 uM measured after 48 hrs by qRT-PCR analysis; assay type: functional, tissue-based
Leishmania amazonensis [15] = assay: Induction of morphological changes in Leishmania amazonensis (MHOM/BR/76/MA-76) promastigotes assessed as formation of small vesicles surrounded by a membrane in cytoplasm at IC50 incubated for 24 hrs by transmission electron microscopy analysis; assay type: functional, organism-based
[16] = Upregulation of iNOS mRNA expression in BALB/c mouse peritoneal macrophages at 50 uM measured after 48 hrs by qRT-PCR analysis relative to control; assay type: functional, Peritoneal macrophage
Leishmania amazonensis [17] = assay: (§2) Antileishmanial activity against Leishmania amazonensis (MHOM/BR/76/MA-76) intracellular amastigotes infected in BALB/c mouse peritoneal macrophages assessed as number of amastigotes per 100 cells at 15.52 uM measured after 24 hrs by Giemsa's azur-eosin-methylene blue staining based light microscopy analysis; assay type: functional, Peritoneal macrophage
Peritoneal macrophage [18] = assay: Cytotoxicity against BALB/C mouse peritoneal macrophages assessed as reduction in cell viability at 100 uM measured after 24 hrs by MTT assay relative to control; assay type: cell-based
[19] = Inhibition of iNOS expression in BALB/c mouse peritoneal macrophages assessed as decrease in LPS induced nitrite levels at 50 uM pretreated with 1400W for 1 hr followed by LPS stimulation further treated with test compound and measured after 48 hrs by Griess reagent based assay (Rvb= 4.27 +/- 0.432 uM); assay type: functional, Peritoneal macrophage
Peritoneal macrophage [20] = assay: Induction of NO production in BALB/C mouse peritoneal macrophages assessed as nitrite levels at 50 uM measured after 48 hrs by Griess reagent based assay (Rvb= 3.22 +/- 0.570 uM); assay type: functional
Leishmania amazonensis [21] = assay: Induction of morphological changes in Leishmania amazonensis (MHOM/BR/76/MA-76) promastigotes assessed as kinetoplast swelling at IC50 incubated for 24 hrs by transmission electron microscopy analysis; assay type: functional, organism-based
[22] = Inhibition of iNOS expression in BALB/C mouse peritoneal macrophages stimulated with Leishmania amazonensis assessed as decrease in nitrite levels at 50 uM pretreated with 1400W for 1 hr followed by parasite stimulation and measured after 48 hrs by Griess reagent based assay (Rvb= 2.60 +/- -.236 uM); assay type: functional, Peritoneal macrophage
Peritoneal macrophage [23] = assay: Induction of NO production in BALB/C mouse peritoneal macrophages infected with Leishmania amazonensis assessed as nitrite levels at 50 uM measured after 48 hrs by Griess reagent based assay (Rvb= 4.11 +/- 0.156 uM); assay type: functional
Peritoneal macrophage [24] = assay: Upregulation of TNF-alpha mRNA expression in BALB/c mouse peritoneal macrophages stimulated with Leishmania amazonensis at 50 uM measured after 48 hrs by qRT-PCR analysis; assay type: functional, tissue-based
Leishmania amazonensis [25] = assay: as §2, with “cell” for “100 cells”, “uM pretreated with 1400W for 1 hr followed by test compound addition” for “uM”; assay type: functional, Peritoneal macrophage
[26] = Cytotoxicity against human CCD-1072Sk cells assessed as reduction in cell viability at <400 uM measured after 24 hrs by MTT assay; assay type: cell-based
Leishmania amazonensis [27] = assay: as §2, with “cell” for “100 cells”; assay type: functional, Peritoneal macrophage
[28] = Upregulation of iNOS mRNA expression in BALB/c mouse peritoneal macrophages stimulated with Leishmania amazonensis at 50 uM measured after 48 hrs by qRT-PCR analysis; assay type: functional, Peritoneal macrophage
Peritoneal macrophage [29] = assay: Induction of NO production in BALB/C mouse peritoneal macrophages assessed as nitrite levels at 100 uM measured after 48 hrs by Griess reagent based assay (Rvb= 3.22 +/- 0.570 uM); assay type: functional
Leishmania amazonensis [30] = assay: as §2, with “percentage” for “number”, “infected” for “amastigotes per 100”; assay type: functional, Peritoneal macrophage
Peritoneal macrophage [31] = assay: Upregulation of IL-10 mRNA expression in BALB/c mouse peritoneal macrophages stimulated with Leishmania amazonensis at 50 uM measured after 48 hrs by qRT-PCR analysis; assay type: functional, tissue-based
Leishmania amazonensis [32] = assay: as §2, with “uM pretreated with 1400W for 1 hr followed by test compound addition” for “uM”; assay type: functional, Peritoneal macrophage
[33] = Selectivity ratio of IC50 for antileishmanial activity against Leishmania amazonensis (MHOM/BR/76/MA-76) promastigotes to IC50 for antileishmanial activity against Leishmania amazonensis (MHOM/BR/76/MA-76) intracellular amastigotes infected in BALB/c mouse peritoneal macrophages; assay type: functional
Leishmania amazonensis [34] = assay: Induction of morphological changes in Leishmania amazonensis (MHOM/BR/76/MA-76) promastigotes assessed as lipid inclusions at IC50 incubated for 24 hrs by transmission electron microscopy analysis; assay type: functional, organism-based
Leishmania amazonensis [35] = assay: as §2, with “percentage” for “number”, “infected” for “amastigotes per 100”, “uM pretreated with 1400W for 1 hr followed by test compound addition” for “uM”; assay type: functional, Peritoneal macrophage
Peritoneal macrophage [36] = assay: Upregulation of IL-6 mRNA expression in BALB/c mouse peritoneal macrophages stimulated with Leishmania amazonensis at 50 uM measured after 48 hrs by qRT-PCR analysis; assay type: functional, tissue-based
Leishmania amazonensis [37] = assay: as §1, with “per 100” for “per infected”, “at” for “at 20 to”; assay type: functional, organism-based; conditions: Peritoneal macrophage
Leishmania amazonensis [38] = assay: Antileishmanial activity against Leishmania amazonensis (MHOM/BR/76/MA-76) intracellular amastigotes infected in BALB/c mouse peritoneal macrophages assessed as low amastigote mean at 40 uM incubated for 24 hrs by Giemsa's azur-eosin-methyle blue staining based light microscopy analysis; assay type: functional, organism-based; conditions: Peritoneal macrophage
Leishmania amazonensis [39] = assay: as §1, with “up” for “20”; assay type: functional, organism-based; conditions: Peritoneal macrophage
[40] = Inhibition of iNOS expression in BALB/c mouse peritoneal macrophages stimulated with Leishmania amazonensis assessed as decrease in nitrite levels at 200 nM pretreated for 1 hr followed by parasite stimulation and measured after 48 hrs by Griess reagent based assay; assay type: functional, Peritoneal macrophage; conditions: time 49 hrs

Structure (SMILES): CCCCCCCCCCCCCCCCOP(=O)([O-])OCC[N+](C)(C)C [MILTEFOSINE]
- Activity (Leishmania amazonensis [1]): Active
- CC50 at 24 h [2]: 169 µM
- CC50 at 24 h [3]: 191 µM
- selectivity ratio [4]: 33.2
- IC50 (Leishmania amazonensis [5]): 8.02 µM
- Activity (Leishmania amazonensis [6]): Active
- selectivity ratio [7]: 21.1
- Activity (Leishmania amazonensis [8]): Active
- IC50 (Leishmania amazonensis [9]): 5.11 µM
- Activity (Leishmania amazonensis [10]): Active
- Activity (Leishmania amazonensis [11]): Active

Structure (SMILES): OC(c1ccc(Br)cc1)c1cn(-c2ccc(Br)cc2)nn1 (stereo not drawn)
- Activity (Peritoneal macrophage [12]): Active
- Activity (Leishmania amazonensis [13]): Active
- Activity (Peritoneal macrophage [14]): inactive
- Activity (Leishmania amazonensis [15]): Active
- fold change (FC) [16]: 12.28
- Activity (Leishmania amazonensis [1]): Active
- Activity (Leishmania amazonensis [17]): 169.38
- CC50 at 24 h [2]: 84 µM
- Activity (Peritoneal macrophage [18]): 65.79%
- selectivity ratio [4]: 20.5
- Activity [19]: 2.65 µM
- IC50 (Leishmania amazonensis [5]): 15.5 µM
- Activity (Leishmania amazonensis [6]): Active
- Activity (Peritoneal macrophage [20]): 4.63 µM
- Activity (Leishmania amazonensis [21]): Active
- selectivity ratio [7]: 5.41
- Activity [22]: 3.06 µM
- Activity (Peritoneal macrophage [23]): 9.37 µM
- Activity (Peritoneal macrophage [24]): Active
- Activity (Leishmania amazonensis [25]): 3.68
- Activity [26]: Non-Toxic
- Activity (Leishmania amazonensis [27]): 2.86
- fold change (FC) [28]: 24.47
- Activity (Leishmania amazonensis [8]): Active
- IC50 (Leishmania amazonensis [9]): 4.1 µM
- Activity (Peritoneal macrophage [29]): 4.34 µM
- Activity (Leishmania amazonensis [30]): 55.6
- Activity (Peritoneal macrophage [31]): inactive
- Activity (Leishmania amazonensis [32]): 288.25
- Ratio IC50 [33]: 3.7
- Activity (Leishmania amazonensis [34]): Active
- Activity (Leishmania amazonensis [10]): Active
- Activity (Leishmania amazonensis [11]): Active
- Activity (Leishmania amazonensis [35]): 79.6
- Activity (Peritoneal macrophage [36]): inactive

Structure (SMILES): O=[N+]([O-])c1ccccc1C(O)c1cn(-c2ccc(Br)cc2)nn1 (stereo not drawn)
- CC50 at 24 h [2]: > 400 µM
- IC50 (Leishmania amazonensis [5]): 190 µM
- selectivity ratio [7]: > 2.1
- Activity [26]: Non-Toxic

Structure (SMILES): O=c1ccc2cc(-n3cc(C(O)c4ccccc4Br)nn3)ccc2o1 (stereo not drawn)
- CC50 at 24 h [2]: 348 µM
- IC50 (Leishmania amazonensis [5]): 81.4 µM
- selectivity ratio [7]: 4.27
- Activity [26]: Non-Toxic

Structure (SMILES): COC(=O)c1ccc(-n2cc(C(O)c3ccccc3Br)nn2)cc1 (stereo not drawn)
- Activity (Leishmania amazonensis [13]): Active
- Activity (Leishmania amazonensis [15]): Active
- Activity (Leishmania amazonensis [37]): Active
- CC50 at 24 h [2]: 297 µM
- selectivity ratio [4]: 8.03
- IC50 (Leishmania amazonensis [5]): 27.8 µM
- Activity (Leishmania amazonensis [6]): Active
- selectivity ratio [7]: 10.7
- Activity [26]: Non-Toxic
- Activity (Leishmania amazonensis [38]): Active
- IC50 (Leishmania amazonensis [9]): 37 µM
- Activity (Leishmania amazonensis [34]): Active
- Activity (Leishmania amazonensis [11]): Active
- Activity (Leishmania amazonensis [39]): inactive

Structure (SMILES): COC(=O)c1ccc(-n2cc(C(O)c3cccnc3-c3ccccc3)nn2)cc1 (stereo not drawn)
- CC50 at 24 h [2]: > 400 µM
- IC50 (Leishmania amazonensis [5]): 95.9 µM
- selectivity ratio [7]: > 4.17
- Activity [26]: Non-Toxic

Structure (SMILES): CC(=N)NCc1cccc(CN)c1.Cl.Cl
- Activity [40]: 2.06 µM
